Measured values reported in EP0922044B1, “PYRROLO(3,2-C) QUINOLINE DERIVATIVES” (PHARMACIA & UPJOHN S.p.A., priority 1996, dated 1998).

Target: T1, kynurenine-3-hydroxylase (Rattus norvegicus, UniProt O88867)
T1 construct: Rat liver mitochondrial extract was used as enzymatic preparation for this assay; from tissue; host or cells: rat liver mitochondrial extract
Experiment: Kynurenine-3-hydroxylase assay in rat liver (radiometric, release of tritiated water, mitochondrial extract)
Type: biochemical
Details: 37°C, 30 min, 0.025 mM L-kynurenine, read-out: KYN-3-OH inhibition (IC50) Liver
Experimental: Kynurenine-3-hydroxylase assay in rat liver
The assay for kynurenine 3-hydroxylase was based on enzymatic synthesis of tritiated water during hydroxylation reaction. Radiolabelled water was quantified following selective adsorption of the isotopic substrate and its metabolites with active charcoal.
Rat liver mitochondrial extract was used as enzymatic preparation for this assay.
The assay for kynurenine 3-hydroxylase activity was carried out at 37°C for a time of 30 min. The reaction mixture of a total volume of […] was constituted of 44 mg of suspended extract, 100 mM Tris/Cl buffer pH 8.1, 10 mM EDTA, 100mM KCl, 0.8 mM NADPH, 0.025 mM L-kynurenine, 0.5 mCi L-(3,5-^3H)Kynurenine (10 Ci/mmol) and […] of different concentration of inhibitor solutions. After the incubation the reaction was terminated by the addition of 1 mL of 7.5% (w/v) activated charcoal, vortexed and centrifugated for 7 min.
A […] of supernatant was counted by scintillation spectroscopy in 5 ml of liquid scintillation.

T1 sequence (O88867 whole entry): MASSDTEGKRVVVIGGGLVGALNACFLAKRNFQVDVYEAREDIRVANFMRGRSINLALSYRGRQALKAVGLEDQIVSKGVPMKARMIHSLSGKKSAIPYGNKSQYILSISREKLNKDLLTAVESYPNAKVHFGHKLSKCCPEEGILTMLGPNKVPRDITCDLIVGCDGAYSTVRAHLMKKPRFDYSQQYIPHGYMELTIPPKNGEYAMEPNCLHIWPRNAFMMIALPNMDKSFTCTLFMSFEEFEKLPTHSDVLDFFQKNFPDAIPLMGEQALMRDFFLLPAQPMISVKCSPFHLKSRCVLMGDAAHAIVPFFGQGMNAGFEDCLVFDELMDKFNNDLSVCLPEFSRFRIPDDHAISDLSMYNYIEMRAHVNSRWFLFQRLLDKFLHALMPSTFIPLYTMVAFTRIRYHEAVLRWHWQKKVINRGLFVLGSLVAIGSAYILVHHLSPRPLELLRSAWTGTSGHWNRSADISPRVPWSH

IC50	SMILES
61 µM	Cc1c[nH]c2c1c(C(=O)O)nc1ccc(Cl)cc12 [FCE 29370, 8-chloro-3-methyl-1H-pyrrolo[3,2-c] quinoline-4-carboxylic acid]
34 µM	O=C(O)c1nc2cc(Cl)ccc2c2[nH]cc(-c3ccccc3)c12 [FCE 29464, 7-chloro-3-phenyl-1H-pyrrolo[3,2-c] quinoline-4-carboxylic acid]
